From patent US7622470B2, “Treatment of T-cell lymphoma using 10-propargyl-10-deazaaminopterin” (Sloan-Kettering Institute for Cancer Research, priority 2004, dated 2009)
Entries after “also recorded” stand apart in the source; their conditions may differ. Like-named read-outs stand apart in the source and are kept apart here.

How the values were obtained:
T cell lymphoma [1] = assay type: in vivo
Procedure: Each of these patients was also treated with folic acid (1 mg/m^2 daily starting 1 week prior to treatment with PDX) and B12 (1 mg/m^2 monthly) supplementation.

murine L1210 cell line = conditions: cited from earlier work
[2] = target: T1, dihydrofolate reductase (DHFR) (Mus musculus, UniProt P00375); conditions: relative to L1210 growth inhibition; cited from earlier work
T1 sequence (P00375 1-187): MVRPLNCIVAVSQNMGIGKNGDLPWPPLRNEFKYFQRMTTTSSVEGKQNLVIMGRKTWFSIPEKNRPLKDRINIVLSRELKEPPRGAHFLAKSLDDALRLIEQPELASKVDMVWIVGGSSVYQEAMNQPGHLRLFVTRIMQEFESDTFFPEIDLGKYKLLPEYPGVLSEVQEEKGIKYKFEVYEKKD

[3] = tested on: human tumors (mammary, lung) xenograft; conditions: cited from earlier work
mesothelioma = conditions: cited from earlier work
T cell lymphoma [4] = assay: Prior treatment history of the study patients; assay type: in vivo, human; conditions: Patient 2: Lymphoblastic Lymphoma, Precursor T-cell; MTX May 2002 through February 2004
[5] = Patient 2: Lymphoblastic Lymphoma, Precursor T-cell, Stage IV, PDX 30 mg/m^2 x 3 weeks every 4 weeks, 3 cycles
[6] = Patient 3: HTLV Associated T-cell Lymphoma, PDX 30 mg/m^2 weekly x 3 every 4 weeks x 2 cycles
[7] = Patient 4: Panniculitic T-cell Lymphoma, PDX 30 mg/m^2 weekly x 4

Compound | Overall response of the patients with T-cell lymphoma treated with PDX (T cell lymphoma [1]; 4 patients, PET imaging) | Toxicities (T cell lymphoma [1]; Patient 1: Peripheral T-cell Lymphoma, Stage IV, PDX 135 mg/m^2 x 1 dose) | Response (T cell lymphoma [1]; Patient 1: Peripheral T-cell Lymphoma, Stage IV, PDX 135 mg/m^2 x 1 dose, folic acid and B12 supplementation) | Response (T cell lymphoma [1]; [5]) | Toxicities (T cell lymphoma [1]; [5]) | Response (T cell lymphoma [1]; [6]) | Toxicities (T cell lymphoma [1]; [6]) | Response (T cell lymphoma [1]; [7]) | Toxicities (T cell lymphoma [1]; [7]) | Inhibition of growth (murine L1210 cell line) | Inhibition of the enzyme [2] | Efficacy against human tumors compared with reference antifolates ([3]; highly purified PDX compositions) | Tumor growth after cessation of therapy ([3]; several weeks after the cessation of therapy) | Efficacy against mesothelioma (mesothelioma) | Response to prior treatment (T cell lymphoma [4])
C#CCC(Cc1cnc2nc(N)nc(N)c2n1)c1ccc(C(=O)N[C@@H](CCC(=O)O)C(=O)O)cc1 (stereo partly drawn) [PDX, 10-Propargyl-10-deazaaminopterin] | all four have met criteria for complete remission | Grade 3 stomatitis; neutropenia grade 3; sepsis | Essentially complete remission by PET scan | Complete remission by PET and CT scans | None | Complete remission | None | Clinical complete remission by PET | None | inhibitor of growth | to a lesser extent | far superior to methotrexate; also recorded: superior to edatrexate | no evidence of tumor growth | effective against mesothelioma | 
CN(Cc1cnc2nc(N)nc(N)c2n1)c1ccc(C(=O)N[C@@H](CCC(=O)O)C(=O)O)cc1 [methotrexate] |  |  |  |  |  |  |  |  |  |  |  |  |  |  | essentially methotrexate resistant disease
